In ChEMBL document CHEMBL3853265 (Medchemcomm, 2016):
pIC50: −log10 of the molar value. In brackets after ≈: the same amount, converted by molar mass.

Columns and labels:
[1] = Renal clearance in dog at 0.363 mg/kg, iv and 0.737 mg/kg, po relative to GFR x fraction unbound; format: ADME, organism-based, Canis lupus familiaris; conditions: in vivo
[2] = Renal clearance in rat at 1 mg/kg, iv and 3 mg/kg, po relative to GFR x fraction unbound; format: ADME, organism-based; conditions: in vivo
[3] = target: T1, Solute carrier organic anion transporter family member 2B1 (Homo sapiens, UniProt O94956); experiment: Drug uptake assessed as human OATP2B1-mediated drug accumulation by cell-based assay relative to wild type protein; format: ADME
T1 sequence (O94956 whole entry): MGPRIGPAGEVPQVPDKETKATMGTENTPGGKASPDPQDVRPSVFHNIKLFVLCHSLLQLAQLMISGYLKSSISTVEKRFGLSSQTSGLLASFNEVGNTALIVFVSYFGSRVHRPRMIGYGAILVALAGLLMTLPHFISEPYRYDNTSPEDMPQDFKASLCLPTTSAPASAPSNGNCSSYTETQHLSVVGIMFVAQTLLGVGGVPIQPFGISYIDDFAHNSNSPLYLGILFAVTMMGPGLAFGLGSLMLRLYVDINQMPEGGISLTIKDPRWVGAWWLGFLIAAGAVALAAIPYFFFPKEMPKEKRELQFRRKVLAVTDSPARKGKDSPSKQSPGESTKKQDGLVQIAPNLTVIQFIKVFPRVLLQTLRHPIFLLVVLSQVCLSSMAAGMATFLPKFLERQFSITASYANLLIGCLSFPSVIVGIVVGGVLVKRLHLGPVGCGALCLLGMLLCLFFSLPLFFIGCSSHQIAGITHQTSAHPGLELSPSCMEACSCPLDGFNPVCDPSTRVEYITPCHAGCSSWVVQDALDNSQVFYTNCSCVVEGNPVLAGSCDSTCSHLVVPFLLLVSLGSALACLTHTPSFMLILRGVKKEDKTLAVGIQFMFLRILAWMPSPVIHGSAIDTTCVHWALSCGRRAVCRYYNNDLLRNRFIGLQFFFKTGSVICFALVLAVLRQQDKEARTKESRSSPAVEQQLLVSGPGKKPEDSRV

[4] = target: Sodium channel protein type 5 subunit alpha (Homo sapiens, UniProt Q14524); experiment: Inhibition of human NaV1.5 expressed in HEK293 cells by patch clamp method; format: cell-based
Sequence of Sodium channel protein type 5 subunit alpha (Q14524 whole entry): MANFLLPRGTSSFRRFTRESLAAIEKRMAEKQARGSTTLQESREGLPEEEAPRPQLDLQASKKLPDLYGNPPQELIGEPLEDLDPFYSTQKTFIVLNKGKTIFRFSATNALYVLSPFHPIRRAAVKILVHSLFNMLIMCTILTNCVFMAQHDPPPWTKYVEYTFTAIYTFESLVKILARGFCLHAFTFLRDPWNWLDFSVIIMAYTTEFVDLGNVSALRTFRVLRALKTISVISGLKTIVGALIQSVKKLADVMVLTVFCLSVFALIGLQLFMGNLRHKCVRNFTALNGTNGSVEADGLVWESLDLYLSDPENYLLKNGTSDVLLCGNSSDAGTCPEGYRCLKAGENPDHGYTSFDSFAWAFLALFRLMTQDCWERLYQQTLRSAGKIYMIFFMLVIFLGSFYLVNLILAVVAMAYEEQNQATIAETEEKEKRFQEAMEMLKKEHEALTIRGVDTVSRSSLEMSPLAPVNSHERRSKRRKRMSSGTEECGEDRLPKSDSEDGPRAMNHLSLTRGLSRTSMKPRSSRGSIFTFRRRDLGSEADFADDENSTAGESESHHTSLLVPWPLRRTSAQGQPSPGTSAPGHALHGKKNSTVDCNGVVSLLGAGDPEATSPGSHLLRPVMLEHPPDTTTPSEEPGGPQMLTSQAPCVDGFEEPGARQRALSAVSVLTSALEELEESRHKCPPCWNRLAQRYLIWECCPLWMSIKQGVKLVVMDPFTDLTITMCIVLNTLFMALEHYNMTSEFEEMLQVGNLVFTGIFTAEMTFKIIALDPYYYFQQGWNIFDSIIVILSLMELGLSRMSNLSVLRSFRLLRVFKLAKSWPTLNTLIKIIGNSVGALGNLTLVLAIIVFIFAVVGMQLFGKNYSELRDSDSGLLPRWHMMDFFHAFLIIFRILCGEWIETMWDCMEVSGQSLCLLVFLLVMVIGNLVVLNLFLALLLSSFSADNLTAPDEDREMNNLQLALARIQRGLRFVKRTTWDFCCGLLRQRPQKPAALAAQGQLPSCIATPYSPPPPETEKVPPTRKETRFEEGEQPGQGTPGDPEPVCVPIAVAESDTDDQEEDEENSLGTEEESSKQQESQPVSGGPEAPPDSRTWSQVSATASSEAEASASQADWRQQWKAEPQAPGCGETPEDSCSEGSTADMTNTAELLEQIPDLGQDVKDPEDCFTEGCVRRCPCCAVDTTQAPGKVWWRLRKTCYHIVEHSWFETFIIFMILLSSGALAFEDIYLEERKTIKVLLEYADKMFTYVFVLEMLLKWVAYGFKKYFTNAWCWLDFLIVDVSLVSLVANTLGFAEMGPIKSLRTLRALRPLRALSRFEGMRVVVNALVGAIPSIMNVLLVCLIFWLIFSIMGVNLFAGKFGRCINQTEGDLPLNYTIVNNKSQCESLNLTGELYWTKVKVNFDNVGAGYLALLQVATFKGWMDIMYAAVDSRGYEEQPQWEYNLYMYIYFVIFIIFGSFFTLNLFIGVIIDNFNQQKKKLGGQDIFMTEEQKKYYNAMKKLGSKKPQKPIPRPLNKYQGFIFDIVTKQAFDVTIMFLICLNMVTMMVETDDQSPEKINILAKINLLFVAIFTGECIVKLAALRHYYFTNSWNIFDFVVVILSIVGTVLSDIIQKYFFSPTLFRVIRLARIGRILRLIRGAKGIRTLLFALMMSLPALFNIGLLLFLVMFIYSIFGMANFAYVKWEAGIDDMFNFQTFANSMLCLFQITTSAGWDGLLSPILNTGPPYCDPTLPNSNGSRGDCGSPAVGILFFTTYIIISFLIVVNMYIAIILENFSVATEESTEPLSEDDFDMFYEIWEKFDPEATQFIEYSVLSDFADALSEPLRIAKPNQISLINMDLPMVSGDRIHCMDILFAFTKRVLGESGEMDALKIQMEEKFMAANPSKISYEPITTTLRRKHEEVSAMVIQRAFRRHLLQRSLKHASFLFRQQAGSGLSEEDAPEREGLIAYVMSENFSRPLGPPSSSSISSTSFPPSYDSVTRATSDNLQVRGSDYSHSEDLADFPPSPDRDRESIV

[5] = target: T2, Organic anion transporter 3 (Homo sapiens, UniProt Q8TCC7); experiment: Inhibition of OAT3 (unknown origin)
T2 sequence (Q8TCC7 whole entry): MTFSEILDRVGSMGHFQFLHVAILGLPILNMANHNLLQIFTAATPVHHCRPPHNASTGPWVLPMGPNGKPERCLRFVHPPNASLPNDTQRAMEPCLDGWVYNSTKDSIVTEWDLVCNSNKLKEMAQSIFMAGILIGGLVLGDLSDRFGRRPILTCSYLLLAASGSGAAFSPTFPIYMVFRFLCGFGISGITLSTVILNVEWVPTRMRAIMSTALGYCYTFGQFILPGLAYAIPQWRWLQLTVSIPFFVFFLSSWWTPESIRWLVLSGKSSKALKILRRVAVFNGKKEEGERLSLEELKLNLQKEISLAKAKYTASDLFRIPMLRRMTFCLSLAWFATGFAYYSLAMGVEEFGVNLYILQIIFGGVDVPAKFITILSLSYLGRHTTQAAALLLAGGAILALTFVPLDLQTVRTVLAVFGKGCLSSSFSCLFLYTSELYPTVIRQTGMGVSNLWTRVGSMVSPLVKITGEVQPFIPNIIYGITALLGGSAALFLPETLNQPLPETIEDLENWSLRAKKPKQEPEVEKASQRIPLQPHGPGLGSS

[6] = Fraction unbound in rat plasma; format: ADME, cell-free
[7] = Intrinsic clearance in human hepatocytes assessed per 10^6 cells; format: ADME, cell-based, Hepatocyte
[8] = Fraction unbound in dog plasma; format: ADME, cell-free, Canis lupus familiaris
[9] = target: T3, Solute carrier organic anion transporter family member 1B1 (Homo sapiens, UniProt Q9Y6L6); experiment: Drug uptake assessed as human OATP1B1-mediated drug accumulation by cell-based assay relative to wild type protein; format: ADME
T3 sequence (Q9Y6L6 whole entry): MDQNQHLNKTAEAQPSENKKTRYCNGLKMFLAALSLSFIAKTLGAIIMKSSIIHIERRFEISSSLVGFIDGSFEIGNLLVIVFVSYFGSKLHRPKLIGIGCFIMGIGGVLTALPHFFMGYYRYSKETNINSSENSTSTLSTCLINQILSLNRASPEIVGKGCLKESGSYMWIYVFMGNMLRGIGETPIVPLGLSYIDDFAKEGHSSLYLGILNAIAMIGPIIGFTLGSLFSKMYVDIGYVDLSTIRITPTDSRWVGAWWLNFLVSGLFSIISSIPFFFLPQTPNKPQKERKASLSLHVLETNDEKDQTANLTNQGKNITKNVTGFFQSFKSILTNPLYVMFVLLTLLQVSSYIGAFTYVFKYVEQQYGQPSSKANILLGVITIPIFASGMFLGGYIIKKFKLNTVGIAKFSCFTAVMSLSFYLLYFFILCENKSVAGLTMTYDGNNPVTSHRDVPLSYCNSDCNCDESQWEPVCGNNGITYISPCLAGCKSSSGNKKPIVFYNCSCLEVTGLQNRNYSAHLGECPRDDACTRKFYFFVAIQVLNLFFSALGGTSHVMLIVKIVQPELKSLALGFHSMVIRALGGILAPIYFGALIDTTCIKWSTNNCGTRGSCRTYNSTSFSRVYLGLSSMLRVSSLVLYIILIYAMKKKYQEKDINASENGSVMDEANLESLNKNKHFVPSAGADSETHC

[10] = Intrinsic clearance in dog liver microsomes; format: ADME, Canis lupus familiaris; conditions: read-out: CLH
[11] = target: T4, Solute carrier family 22 member 12 (Homo sapiens, UniProt Q96S37); experiment: Inhibition of human C-terminal eGFP-tagged URAT1 long isoform expressed in CHO cells assessed as decrease in [14C]-uric acid uptake preincubated for 15 mins followed by [14C]-uric acid addition and incubated in dark for 3 hrs by scintillation counting method; format: cell-based
T4 sequence (Q96S37 whole entry): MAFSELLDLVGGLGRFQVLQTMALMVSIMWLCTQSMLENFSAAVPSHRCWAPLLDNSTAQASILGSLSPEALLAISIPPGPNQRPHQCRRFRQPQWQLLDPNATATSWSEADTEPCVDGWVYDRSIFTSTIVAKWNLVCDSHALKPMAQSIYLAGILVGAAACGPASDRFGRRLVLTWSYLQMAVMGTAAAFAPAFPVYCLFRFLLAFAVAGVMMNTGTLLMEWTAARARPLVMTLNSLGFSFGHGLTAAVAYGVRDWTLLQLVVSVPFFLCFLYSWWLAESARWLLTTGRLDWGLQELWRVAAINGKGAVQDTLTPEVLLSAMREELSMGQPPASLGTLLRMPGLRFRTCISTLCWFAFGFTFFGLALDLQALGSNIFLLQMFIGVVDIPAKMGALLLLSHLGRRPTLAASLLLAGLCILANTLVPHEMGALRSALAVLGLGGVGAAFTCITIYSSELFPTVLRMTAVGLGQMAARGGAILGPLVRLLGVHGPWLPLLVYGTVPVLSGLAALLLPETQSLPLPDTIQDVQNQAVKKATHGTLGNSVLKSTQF

[12] = Mutagenicity in […] by Ames test in absence of […]; format: toxicity
[13] = Solubility of the compound at pH 6.5; format: physicochemical; conditions: buffer

Which CL [1] does the source give for `O=S(=O)(Nc1cncc(C(F)(F)F)c1)c1ccccc1C(F)(F)F` here?
The CL was under 2%.

And the CL [2]?
Its CL is under 2%.

What about the “fold change (FC)” value [3] of the same molecule?
The value was 0.961.

What about the pIC50 [4] of the same molecule?
The pIC50 was under 4.52.

And the pIC50 [5]?
Its pIC50 is 5.47.

What about the fraction unbound [6] of the same molecule?
The fraction unbound was 0.0017.

And the CLH [7]?
The CLH was 6 µL/min/1e6 cells.

And the fraction unbound [8]?
The fraction unbound was 0.057.

And the “fold change (FC)” value [9]?
Its value is 0.573.

What about the microsomal CLint [10] of the same molecule?
The microsomal CLint was under 18 µL/min/mg.

What about the pIC50 [11] of the same molecule?
The pIC50 was 7.44.

And the Activity [12]?
Its Activity is “Non-Toxic”.

What about the solubility [13] of the same molecule?
Its solubility is 489 µM (≈ 181 µg/mL).

With `O=S(=O)(Nc1ccc(C(F)(F)F)nc1)c1ccccc1C(F)(F)F` as the molecule, how does the CL [1] read?
The CL was under 2%.

And the CL [2]?
Its CL is under 2%.

What about the “fold change (FC)” value [3] of the same molecule?
The value was 1.145.

What about the pIC50 [4] of the same molecule?
Its pIC50 is under 4.00.

What about the pIC50 [5] of the same molecule?
Its pIC50 is 5.48.

And the fraction unbound [6]?
Its fraction unbound is 0.0045.

What about the CLH [7] of the same molecule?
Its CLH is under 6 µL/min/1e6 cells.

What about the fraction unbound [8] of the same molecule?
The fraction unbound was 0.01.

And the “fold change (FC)” value [9]?
Its value is 0.902.

What about the microsomal CLint [10] of the same molecule?
Its microsomal CLint is under 18 µL/min/mg.

What about the pIC50 [11] of the same molecule?
The pIC50 was 7.38.

What about the Activity [12] of the same molecule?
The Activity was “Non-Toxic”.

What about the solubility [13] of the same molecule?
Its solubility is 620 µM (≈ 230 µg/mL).
